Each structure is given as a SMILES string.

Results on five compounds are retold here after patent EP0473993B1, “Novel peptide derivatives and their pharmaceutical use” (Japan Tobacco Inc., priority 1990, dated 1992).

Assay [1] concerns ICR male mice. The experiment in a line: Anti-chlorpromazine action (locomotor stimulant action). The class given is in vivo. The conditions noted are these: Mus musculus, 2 h; SC; mice given chlorpromazine HCl 5 mg/kg s.c. one hour before; estimated from regression line; read-out: Concentration of test compound necessary for inducing 3000 count of automatism quantity in 2 hours. How it is done:
Anti-chlorpromazine action (Locomotor stimulant action)
ICR male mice weighing 35 - 40 g (four animals per group) were subcutaneously administered with chlorpromazine HCl at the dose of 5 mg/kg and immediately set in the automatic locomotor-measuring apparatus (AUTOMEX). One hour later, the test compound dissolved in saline was subcutaneously administered, and the locomotor activity was measured every 15 minutes for 120 minutes. The total locomotor activity during the period of 120 minutes was calculated and the regression line was estimated based on the method of least squares, from which the amount of the test compound necessary for inducing 3000 locomotor-count was estimated (Table 2).

The subject of assay [2] is ICR male mice. The experiment in a line: Anti-reserpine action (antagonistic action against hypothermia). Type of assay: in vivo. The conditions noted are these: Mus musculus, 2 h; SC; mice given reserpine 5 mg/kg s.c. 3 or 3.5 hours before; estimated from regression line; read-out: Concentration of test compound necessary for raising body temperature by 1°C on the average for 120 minutes. How it is done: Anti-reserpine action (Antagonistic action against hypothermia)
ICR male mice weighing 35 - 40 g were subcutaneously administered with reserpine at the dose of 5 mg/kg. About 2 hours later, each of the mice was held by a mouse-holder, and a body temperature sensor was intrarectally inserted. Thereafter, the body temperature was automatically measured every 10 minutes. The test compound dissolved in saline was subcutaneously administered 3 or 3.5 hours after administration of reserpine. After the administration of the test compound, the body temperature was measured every 10 minutes over the period of 120 minutes. The area below the body temperature line during the period was calculated, from which the regression line was estimated based upon least square method, and estimated was the amount of the test compound necessary for raising the body temperature by 1°C on the average for 120 minutes from that just before the administration of the test compound (Table 1).

As to `CC(C)C[C@H](NC(=O)[C@H]1NC(=O)C[C@H]1C)C(=O)N1CCC[C@H]1C(N)=O` [Compound 1A, N-(cis-3-Methylpyroglutamyl)-L-leucyl-L-prolinamide], in the assay on ICR male mice [1], the ED (3000 locomotor counts) was 2.63 mg/kg. In the assay with ICR male mice [2], the ED (1 C rise of body temperature) was 0.18 mg/kg.

Turning to `CSCC[C@H](NC(=O)[C@H]1NC(=O)C[C@H]1C)C(=O)N1CCC[C@H]1C(N)=O` [Compound 2A, N-(cis-3-Methylpyroglutamyl)-L-methionyl-L-prolinamide], the ED (3000 locomotor counts) with ICR male mice [1] is 1.64 mg/kg. Besides, the ED (1 C rise of body temperature) with ICR male mice [2] is 0.48 mg/kg.

Consider `CCC[C@H](NC(=O)[C@H]1NC(=O)C[C@H]1C)C(=O)N1CCC[C@H]1C(N)=O` [Compound 3A, N-(cis-3-Methylpyroglutamyl)-L-norvalyl-L-prolinamide], for which, in the assay on ICR male mice [2], the ED (1 C rise of body temperature) is 0.91 mg/kg.

As for `CCCC[C@H](NC(=O)[C@H]1NC(=O)C[C@H]1C)C(=O)N1CCC[C@H]1C(N)=O` [Compound 5A, N-(cis-3-Methylpyroglutamyl)-L-norleucyl-L-prolinamide], the ED (3000 locomotor counts) with ICR male mice [1] was 16.3 mg/kg. Moreover, the ED (1 C rise of body temperature) in the assay on ICR male mice [2] was 0.33 mg/kg.

In the case of `NC(=O)[C@@H]1CCCN1C(=O)[C@H](Cc1c[nH]cn1)NC(=O)[C@@H]1CCC(=O)N1` [TRH, L-pyroglutamyl-L-histidyl-L-prolinamide, reference compound], the ED (3000 locomotor counts) with ICR male mice [1] is 6.82 mg/kg.
